Article PMC12715507, “CARF-HAD phosphatase effectors provide immunity during the type III-A CRISPR–Cas response” (Nucleic Acids Research, 2025)

Molecular target: T1, BbChp
T1 construct: CARF domain (307–528), N-terminal 6xHis
Assay: thermal shift assay (DSF) titration, Tm […] to […] °C
Type: binding, Bacteroidales bacterium

Q: With `Nc1ncnc2c1ncn2[C@@H]1O[C@@H]2COP(=O)(O)O[C@H]3[C@@H](O)[C@H](n4cnc5c(N)ncnc54)O[C@@H]3COP(=O)(O)O[C@H]3[C@@H](O)[C@H](n4cnc5c(N)ncnc54)O[C@@H]3COP(=O)(O)O[C@H]3[C@@H](O)[C@H](n4cnc5c(N)ncnc54)O[C@@H]3COP(=O)(O)O[C@H]2[C@H]1O` [cA4] as the compound, how does the Kd read?
A: The Kd was 273 nM.
